{"source": "patent US20210290576A1", "about": "“STRUCTURALLY MODIFIED FATTY ACIDS FOR IMPROVING GLYCEMIC CONTROL AND TREATING INFLAMMATORY BOWEL DISEASE” (NORTHSEA THERAPEUTICS B.V., priority 2018, published 2021)", "key": {"active GLP-1": {"test_system": "active GLP-1", "assay": "Active GLP-1 during an oral glucose tolerance test (OGTT) and at 24 h in lean male SPD rats", "type": "in vivo, Sprague-Dawley (SPD) rats", "settings": "in combination with DPP4 inhibitor (linagliptin); Compound A 74 mg/kg, Compound B 84 mg/kg, two oral doses", "description": "(§1) Evaluation of the Acute Effects of Compound a and Compound B Upon Active GLP-1 wconcentrations during an oral glucose tolerance test (OGTT) and at 24 h in lean male SPD Rats\n(§2) To establish the acute effects of oral administration of Compound A and Compound B upon active GLP-1 and insulin concentrations, lean (about 300 g) male Sprague-Dawley (SPD) rats were divided into groups (n=6-8) and fed 74 and 84 mg/kg body weight of Compound A or Compound B respectively, either with or without concurrent administration of a dipeptidyl peptidase 4 (DPP-4) inhibitor 60 minutes prior to an oral glucose tolerance test (OGTT) as outlined below. Parallel groups receiving either corn oil alone (corn oil+vehicle, n=10) or corn oil and a DPP-4 inhibitor (“DPP-4 i”) (corn oil+(DPP-4 i), n=10) were included as controls. The DPP-4 inhibitor was linagliptin.\n(§3) A second oral dose of 74 and 84 mg/kg bodyweight of Compound A or Compound B respectively was administered at 240 minutes and ad lib feeding was initiated. A second dose of DPP-4 inhibitor was administered at 480 mins prior to lights out. Blood samples were collected at 24 h for measurement of active GLP-1 and insulin. All values are mean, figures depict mean values (SEM)."}, "plasma insulin": {"test_system": "plasma insulin", "assay": "Plasma insulin at 24 h after OGTT in lean male SPD rats", "type": "in vivo, Sprague-Dawley (SPD) rats", "settings": "non-significant", "description": "as §1, §2, §3"}, "[1]": {"test_system": "B6.V-Lepob/Jrj mice (ob/ob), T2DM rodent model", "assay": "Glucose tolerance (0-120 mins) after 28-day treatment in ob/ob mice", "type": "in vivo", "settings": "28 days; for glucose tolerance: 2 g/kg oral glucose load", "description": "This study was carried out to assess the effects of chronic treatment with Compound B or Compound A on glucose tolerance in a T2DM rodent model.\nFor assessing the effects of Compound B, B6.V-Lepob/Jrj mice (ob/ob) mice were administered Compound B at one of 2 doses, 125 and 250 mg/kg for 28 days. […] After the oral glucose load, plasma glucose was measured at multiple time points from and AUC (0-120 mins) for glucose was calculated."}, "DSS-induced colitis mice": {"test_system": "DSS-induced colitis mice", "assay": "DSS-induced colitis mouse model (body weight, colon length, survival, histology)", "type": "in vivo, C56BL/6J mouse", "settings": "for colon length compared to control: 7 days DSS", "source_text": "Evaluation of Effects of Compound B on Intestinal Inflammation in DSS-Induced Colitis Mice\nThe dextran sodium sulphate-induced (DSS)-induced colitis model is well known in the art as a reproducible chemical induction of intestinal inflammation animal model. See, e.g., Eichele et al., World J Gastroenterol, 2017, 23(33):6016-6029; Randhawa et al., Korean J. Physiol. Pharmacol. (2014) 18:279-288; Jurjus et al., J. Pharmacol. Toxicol., Methods, 2004, 50:81-92; Gaudio et al., Dig. Dis. Sci., 1999, 44:1458-1475. The DSS-induced colitis model morphologically and symptomatically resembles epithelial damage seen in human IBD, and thus has become the most extensively employed experimental model of intestinal inflammation. Okayasu et al., Gastroenterology, 1990, 98:694-702; Kawada et al., World J. Gastroenterol. 2007, 13:5581-5593. The DSS-induced colitis model is most similar to ulcerative colitis in humans, but also has many similarities to Crohn's disease.\nDSS is a water soluble, negatively charged sulfated polysaccharide with a highly variable molecular weight ranging from 5 to 1400 kDa. Murine colitis results from administration of about 1% to 3% DSS to the drinking water of a mouse strain susceptible to DSS-induced colitis. Without being bound by theory, the sulfated polysaccharide may not directly induce intestinal inflammation, but may instead act as a direct chemical toxin to colonic epithelium resulting in epithelial cell injury. It is thought that DSS disrupts the intestinal epithelial monolayer lining, leading to the entry of luminal bacteria and associated antigens into the mucosa and allowing the dissemination of proinflammatory intestinal contents into underlying tissue. […] Perse et al., J. Biomed. Biotechnol., 2012:718617.\nThe C56BL/6J mouse is a strain susceptible to DSS-induced colitis. To evaluate the efficacy and dosage of Compound B in treatment of DSS-induced colitis, inflammation was induced in 30 9-week old C56BL/6J mice by adding 1.5% DSS to the drinking water for 7 days. The mice were fed a standard chow diet that consisted of 30 weight percent wheat. The mice were divided into three groups of 10, and for each day of DSS administration each group was administered via oral gavage either (1) 100 μL corn oil per day (Control), (2) 126 mg/kg Compound B (dissolved in 100 μL corn oil) per day (“Compound B—Low” or “Compound B—L”), or (3) 252 mg/kg Compound B (dissolved in 100 μL corn oil) per day (“Compound B—High” or “Compound B—H”). Following the 7-day period of DSS induction, mice were sacrificed and their intestinal tissue was used for histopathological and gene expression analysis.\nTo assess the efficacy of Compound B in the treatment of DSS-induced colitis in mice, the body weight of mice was monitored. Weight loss is an indicator of colitis severity.\nTo assess the efficacy of Compound B in the treatment of DSS-induced colitis in mice, colon length of test mice was measured. Colon length correlates inversely with inflammation.\n50% (n=5) of untreated mice in the control group were alive 7 days after colitis was induced, compared to 90% (n=9) of mice treated with the low dose of Compound B, and 100% (n=10) of mice treated with the high dose of compound B. Deaths in the control group were due to sepsis and severe colon inflammation. Thus, Compound B has a statistically significant effect on survival rate in colitis mice.\nHistopathological analysis was performed on sections of formalin-fixed paraffin embedded tissue after hematoxylin and eosin (H&E) staining. Colonic samples were analyzed by histopathology for assignment of scores for colitis activity as described in Neurath et al., J. Exp. Med., 2002, 195:1129-1143. Briefly, the degrees of inflammation and epithelial and mucosal injury on microscopic cross-sections of the colon were graded semi-quantitatively from 0 to 4. […]"}, "atherogenic lipids": {"test_system": "atherogenic lipids", "settings": "APOE*3.CETP mice; cited from earlier work"}, "[2]": {"settings": "250 mg/kg once daily oral gavage"}}}
{"smiles": "CC/C=C\\C/C=C\\C/C=C\\C/C=C\\C/C=C\\CCCCSC(CC)(CC)C(=O)O", "note": "[Compound B, 2-ethyl-2-((5Z,8Z,11 Z,14Z,17Z)-icosa-5,8,11,14,17-pentaenylthio)butanoic acid]", "values": [{"measurement": "active GLP-1 concentrations at 24 h versus corn oil+vehicle", "setting": "active GLP-1", "value": "significantly (p<0.01) increased"}, {"measurement": "increase of plasma insulin concentrations at 24 h versus corn oil+vehicle and corn oil+DPP4 inhibitor", "setting": "plasma insulin; compound alone", "value": 25, "unit": "%"}, {"measurement": "increase of plasma insulin concentrations at 24 h versus corn oil+vehicle and corn oil+DPP4 inhibitor", "setting": "plasma insulin; in combination with DPP4 inhibitor (linagliptin)", "value": 40, "unit": "%"}, {"measurement": "glucose tolerance", "setting": "[1]; 125 mg/kg once daily oral gavage", "value": "improved glucose tolerance"}, {"measurement": "AUC (0-120 mins) glucose", "setting": "[1]; [2]", "value": "potent and highly significant (p<0.001) reduction"}, {"measurement": "glucose tolerance", "setting": "[1]; [2]", "value": "improved glucose tolerance"}, {"measurement": "difference in weight loss, control vs. treated", "setting": "DSS-induced colitis mice; 126 mg/kg per day (Compound B—Low)", "value": "statistically significant after 7 days"}, {"measurement": "colon length compared to control", "setting": "DSS-induced colitis mice; 126 mg/kg per day (low dose)", "value": "significant increase in colon length"}, {"measurement": "difference in weight loss, control vs. treated", "setting": "DSS-induced colitis mice; 252 mg/kg per day (Compound B—High)", "value": "statistically significant after 6 days"}, {"measurement": "histological cross-sections of colon: morphology", "setting": "DSS-induced colitis mice; 252 mg/kg per day (high dose)", "value": "almost complete rescue"}, {"measurement": "histological scores of colonic samples versus untreated mice", "setting": "DSS-induced colitis mice; 252 mg/kg per day (high dose)", "value": "significantly lower"}, {"measurement": "inflammation and epithelial and mucosal injury versus untreated mice", "setting": "DSS-induced colitis mice; 252 mg/kg per day (high dose)", "value": "lower"}, {"measurement": "colon length compared to control", "setting": "DSS-induced colitis mice; 252 mg/kg per day (high dose)", "value": "significant increase in colon length"}, {"measurement": "histological cross-sections of colon: inflammatory infiltrates, edema, villus architecture", "setting": "DSS-induced colitis mice; 126 and 252 mg/kg per day", "value": "dose-dependent attenuation of inflammatory infiltrates and edema"}, {"measurement": "weight loss compared to the control group", "setting": "DSS-induced colitis mice; 126 and 252 mg/kg per day oral gavage, 1.5% DSS for 7 days", "value": "dose-dependent reduction in weight loss"}, {"measurement": "atherogenic lipids", "setting": "atherogenic lipids", "value": "significantly reduce atherogenic lipids"}]}
